Broadly, the IC50 is the concentration that inhibits the measured activity by half.

Chain of human PrCP (P42785 46-496): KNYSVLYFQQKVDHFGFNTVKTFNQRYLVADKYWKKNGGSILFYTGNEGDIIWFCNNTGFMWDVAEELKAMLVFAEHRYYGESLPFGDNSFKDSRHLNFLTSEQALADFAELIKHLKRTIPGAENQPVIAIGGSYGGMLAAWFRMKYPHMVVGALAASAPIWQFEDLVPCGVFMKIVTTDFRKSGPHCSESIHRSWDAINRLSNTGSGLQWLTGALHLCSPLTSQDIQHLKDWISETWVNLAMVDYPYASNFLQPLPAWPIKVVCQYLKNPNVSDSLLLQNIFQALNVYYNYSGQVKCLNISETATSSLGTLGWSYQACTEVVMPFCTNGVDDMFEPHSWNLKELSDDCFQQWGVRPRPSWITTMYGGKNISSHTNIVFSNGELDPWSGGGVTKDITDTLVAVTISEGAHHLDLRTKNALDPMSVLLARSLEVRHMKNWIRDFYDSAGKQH

One test deals with human PrCP (Homo sapiens (Human), UniProt P42785). As to the kind of experiment: Prolylcarboxypeptidase (PRCP) enzyme activity assay, fluorescence intensity kinetic assay. The conditions noted are these: recombinant human PrCP (CHO), 15 uM substrate, pH 5.5, 37° C. Format: biochemical. How it is done:
The potency of compounds of formula I against PrCP was determined by a fluorescence intensity kinetic assay measuring the IC50 values of PrCP inhibitor test compounds. […] The assay was run on a Perkin Elmer Envision 2103 plate reader using a 320 nm excitation filter and a 405 emission filter. The assay was performed using a Hamilton Star liquid handling workstation. The assay employed the internally quenched fluorescent substrate (1S)-1-carboxy-5-[(2,4-dinitrophenyl)amino]pentyl N-[(7-methoxy-2-oxo-2H-chromen-4-yl)acetyl]-L-alanyl-L-prolinate prepared in house.
The assay was run in a 384-well microliter plate at 37° C. with a total volume of 50 uL. Final assay concentrations were 0.13 nM human PrCP (CHO) or 0.09 nM mouse PrCP (CHO) enzyme, 15 uM substrate and varying concentrations of inhibitor in buffer containing 10 mM NaOAc, 100 mM NaCl and 19.5 ug/mL BSA at pH 5.5. The assay also contained 2% DMSO used to solubilize the substrate and inhibitor. Inhibitors were prepared in 100% DMSO and serial diluted (in 100% DMSO) to generate 11 point titration curves. Either 39 uL of human or mouse PrCP enzyme was added to the wells of the assay plate, followed by a 1 uL addition of the serially diluted inhibitor and mixed three times using a 30 uL mix volume. The reaction was initiated by the addition of 10 uL substrate and mixed three times using a 30 μL mix volume. The reactions were monitored continuously over 25 min at 37° C. to obtain initial velocities. IC50 values were calculated by comparing the resulting rates of reaction of the inhibited and control initial velocities.
The enzymes were diluted in a mixture of 10 mM NaOAc (pH 5.5)/100 mM NaCl buffer containing 25 ug/mL bovine serum albumin that had been warmed to 37° C. in a water bath. The PrCP inhibitor test compounds were plated in 100% DMSO with a highest concentration of 500 uM. There were 12 dilution points for each compound tested including a blank with DMSO only. The test compounds from the source titration plate were transferred into the assay reaction plate at a 1:50 dilution using the Hamilton Star workstation and mixed, resulting in a final concentration for the test compounds in the range of 10,000 to 0.066 nM. Likewise, two control compounds were similarly titrated and included in each assay, with final starting concentrations starting at 10,000 nM and 200 nM, respectively. The reaction was initiated by the addition of 75 uM of the (1S)-1-carboxy-5-[(2,4-dinitrophenyl)amino]pentyl N-[(7-methoxy-2-oxo-2H-chromen-4-yl)acetyl]-L-alanyl-L-prolinate substrate, which was diluted in a mixture of 10 mM NaOAc (pH 5.5)/100 mM NaCl that had been warmed to 37° C. in a water bath, dispensed using the Hamilton Star workstation and mixed. The substrate was solubilized in 100% DMSO prior to dilution into the assay. The final assay concentrations in the 50 uL reactions were 15 uM of (1S)-1-carboxy-5-[(2,4-dinitrophenyl)amino]pentyl N-[(7-methoxy-2-oxo-2H-chromen-4-yl)acetyl]-L-alanyl-L-prolinate substrate, 0.13 nM Human PrCP (CHO) or 0.09 nM Mouse PrCP (CHO), and 2% DMSO.
The resulting rates of reaction were used to determine the IC50 value for each PrCP inhibitor compound tested.
Turning to `Clc1ccc(-c2cc(C3CCN(CCc4ccccc4)CC3)n(-c3ncccn3)n2)cc1` [Example 1, 2-{3-(4-Chlorophenyl)-5-[1-(2-phenylethyl)piperidin-4-yl]-1H-pyrazol-1-yl}pyrimidine], the half-maximal inhibitory concentration (IC50) was 0.051 nM.

For the compound `Clc1ccc(-c2cc(C3CCN(CCc4ccccc4)CC3)nn2-c2ccncn2)cc1` [Example 13, 4-{5-(4-chlorophenyl)-3-[1-(2-phenylethyl)piperidin-4-yl]-1 Hyl}pyrimidine], the IC50 was 38.4 nM.

For `CCn1nc(-c2ccc(Cl)cc2)cc1C1CCN(CCc2ccccc2)CC1` [Example 26, 4-[3-(4-chlorophenyl)-1-ethyl-1 H-pyrazol-5-yl]-1-(2-phenylethyl)piperidine], the IC50 is 31.8 nM.

Take `COC(=O)C(CN1CCC(c2cc(-c3ccc(F)cc3)nn2-c2ncccn2)CC1)c1ccccc1` (centres unmarked) [Example 33, Methyl 3-{4-[3-(4-fluorophenyl)-1-(pyrimidin-2-yl)-1 H-pyrazol-5-yl]piperidin-1-pyrazol-5-yl]piperidin-1]: the IC50 worked out at 0.035 nM.

For `O=C(O)C(CN1CCC(c2cc(-c3ccc(F)cc3)nn2-c2ncccn2)CC1)c1ccccc1` (centres unmarked) [Example 34, 3-{4-[3-(4-fluorophenyl)-1-(pyrimidin-2-yl)-1 H-pyrazol-5-yl]piperidin-1-yl}-2-phenylpropanoic acid], the IC50 was found to be 0.51 nM.

With `OC(CN1CCC(c2cc(-c3ccc(Cl)cc3)nn2-c2ncccn2)CC1)c1ccccc1` (centres unmarked) [Example 36, 2-{4-[3-(4-Chlorophenyl)-1-(pyrimidin-2-yl)-1H-pyrazol-5-yl]piperidin-1-yl}-1-phenylethanol], the IC50 is 0.31 nM.

For `O=S(=O)(c1ccc(N2CCC(c3cc(-c4ccc(Cl)cc4)nn3-c3ncccn3)CC2)nc1)N1CCOCC1` [Example 48, 4-[(6-{4-[3-(4-chlorophenyl)-1-(pyrimidin-2-yl)-1 H-pyrazol-5-yl]piperidin-1-yl}pyridin-3-yl)sulfonyl]morpholine], the IC50 came to 80.2 nM.

Regarding `CS(=O)(=O)N1CCC(N2CCC(c3cc(-c4ccc(Cl)cc4)nn3-c3ccccc3)CC2)C1` (centres unmarked) [Example 60, 4-[3-(4-chlorophenyl)-1-phenyl-1 H-pyrazol-5-yl]-1-[1-(methylsulfonyl)pyrrolidin-3-yl]piperidine], the IC50 is 21.1 nM.

Consider `O=C(Cc1ccccc1C(F)(F)F)N1CCC(c2cc(-c3ccc(F)cc3)nn2-c2ncccn2)CC1` [Example 68, 1-{4-[3-(4-fluorophenyl)-1-(pyrimidin-2-yl)-1 H-pyrazol-5-yl]piperidin-1-yl}-2-[2-(trifluoromethyl)phenyl]ethanone], for which the IC50 came to 1.28 nM.

As to `CO[C@@H](CN1CCC(c2nc(-c3ccc(F)cc3)nn2-c2ncccn2)CC1)c1ccccc1` [Example 81, 2-[3-(4-fluorophenyl)-5-{1-[(2 R)-2-methoxy-2-phenylethyl]piperidin-4-yl}-1 H-1,2,4-triazol-1-yl]pyrimidine], the IC50 worked out at 2.58 nM.

As to `Fc1ccc(-c2nc(C3C4CN(CCc5ccccc5)CC43)n(-c3ncccn3)n2)cc1` (centres unmarked) [Example 82, 6-[3-(4-Fluorophenyl)-1-(pyrimidin-2-yl)-1H-1,2,4-triazol-5-yl]-3-(2-phenylethyl)-3-azabicyclo[3.1.0]hexane], the IC50 stood at 28.6 nM.

Tested on in the next test: not given
Test: not given
Particulars: intracerebroventricular to rats; cited from earlier work.
For the compound t-butyl carbamate-prolyl prolinal [BPP], the overnight food intake result is recorded as “suppression of overnight food intake”.

Tested on in another test: not given
Test: not given
Particulars: systemic administration to obese, leptin deficient mice; cited from earlier work.
As for t-butyl carbamate-prolyl prolinal [BPP], the overnight food intake result is “suppression of overnight food intake”.

Tested on in the next test: not given
Test: not given
The conditions noted are these: limited weight loss of about; cited from earlier work.
As for `CCN[C@@H](C)Cc1cccc(C(F)(F)F)c1` [dexfenfluramine], the “weight loss, of body weight, drug compared to placebo” value (shortened to “weight loss … compared to placebo”) is recorded as 5%-10%.

Take `CCCCCCCCCCC[C@@H](C[C@@H]1OC(=O)[C@H]1CCCCCC)OC(=O)[C@H](CC(C)C)NC=O` [orlistat]: the “weight loss … compared to placebo” value is on record as 5%-10%.

`CC(C)(N)Cc1ccccc1` [phentermine]: the “weight loss … compared to placebo” value is recorded as 5%-10%.

Turning to `CC(C)CC(N(C)C)C1(c2ccc(Cl)cc2)CCC1` (centres unmarked) [sibutramine], the “weight loss … compared to placebo” value is 5%-10%.

(Values after patent publication US9365539B2, “Prolylcarboxypeptidase inhibitors” (Merck Sharp & Dohme Corp., priority 2010, dated 2016).)
